From US10544154B2, “Opioid receptor antagonist prodrugs” (Nirsum Laboratories, Inc., priority 2017, dated 2020)

Experiments:
[1] = Plasma stability, rat plasma (HPLC-MS); format: in vitro ADME; settings: 10 μM, 37° C.
Experimental: Plasma stability determination of the test compounds in rat, dog, cynomolgus monkey and human plasma is performed using HPLC-MS. For rat, incubations are carried out in 96-well polypropylene plates in 5 aliquots of 70 μL each (one for each time point). […] Five time points are analyzed (0, 15, 120, 480 and 1440 min). For dog, monkey and human, test compounds (2 μM, final solvent concentration 1%) were also incubated at 37° C. and analyzed at five time points (0, 10, 30, 60 and 120 min). All incubations are performed in duplicates. The samples are analyzed by HPLC-MS. The percentage of parent compound remaining after incubation in plasma is determined.

[2] = Polymorph screening of solid state drug substances; format: physicochemical; settings: for Dry method and appearance: after stirring at 50 °C for 72 hours; for XRPD results (Dried): dried solid

Compound	% remaining at time point in minutes, 0 min [1] [%]	% remaining at time point in minutes, 15 min [1] [%]	% remaining at time point in minutes, 120 min [1] [%]	% remaining at time point in minutes, 480 min [1] [%]	% remaining at time point in minutes, 1440 min [1] [%]	other results
CCCCCCCCCCOC(=O)Oc1ccc2c3c1O[C@H]1C(=O)CC[C@@]4(O)C(C2)N(CC2CC2)CC[C@]314 [Compound 10, (4aS,7aR,12bS)-3-(cyclopropylmethyl)-4a-hydroxy-7-oxo-2,3,4,4a,5,6,7,7a-octahydro-1H-4,12-methanobenzofuro[3,2-e]isoquinolin-9-yl decyl carbonate]	100	0	0	0	0	Dry method and appearance ([2]; Acetone): Evaporation/White wax; XRPD results (Dried) ([2]; Acetone): Pattern A; Dry method and appearance ([2]; EtOAc): Evaporation/White wax; XRPD results (Dried) ([2]; EtOAc): Pattern A; Dry method and appearance ([2]; Heptane): Centrifugation/White wax; XRPD results (Dried) ([2]; Heptane): Pattern A; Dry method and appearance ([2]; Isopropanol): Evaporation/White wax; XRPD results (Dried) ([2]; Isopropanol): Pattern A; Dry method and appearance ([2]; MTBE): Evaporation/White wax; XRPD results (Dried) ([2]; MTBE): Pattern A
CCCCCCCCCCCCOC(=O)Oc1ccc2c3c1O[C@H]1C(=O)CC[C@@]4(O)C(C2)N(CC2CC2)CC[C@]314 [Compound 11, (4aS,7aR,12bS)-3-(cyclopropylmethyl)-4a-hydroxy-7-oxo-2,3,4,4a,5,6,7,7a-octahydro-1H-4,12-methanobenzofuro[3,2-e]isoquinolin-9-yl dodecyl carbonate]	100	0.7	0.3	0.2	0	Dry method and appearance ([2]; Acetone): Evaporation/white powder; XRPD results (Dried) ([2]; Acetone): Pattern A; Dry method and appearance ([2]; EtOAc): Evaporation/white powder; XRPD results (Dried) ([2]; EtOAc): Pattern A; Dry method and appearance ([2]; Heptane): Evaporation/white powder; XRPD results (Dried) ([2]; Heptane): Pattern B; Dry method and appearance ([2]; Isopropanol): Evaporation/white powder; XRPD results (Dried) ([2]; Isopropanol): Pattern A; Dry method and appearance ([2]; MTBE): Evaporation/white powder; XRPD results (Dried) ([2]; MTBE): Pattern A
C=C1CC[C@@]2(O)C3Cc4ccc(OC(=O)CCCCCCCCCCCCCCCCCCCCC)c5c4[C@@]2(CCN3CC2CC2)[C@H]1O5 [Compound 14, (4aS,7aS,12bS)-3-(cyclopropylmethyl)-4a-hydroxy-7-methylene-2,3,4,4a,5,6,7,7a-octahydro-1H-4,12-methanobenzofuro[3,2-e]isoquinolin-9-yl docosanoate]	100	94	–	–	120	Dry method and appearance ([2]; Acetone): Evaporation/white powder; XRPD results (Dried) ([2]; Acetone): Pattern A; Visual observation RT ([2]; Acetone, target conc. 100 mg/ml, RT): Slurry; Dry method and appearance ([2]; EtOAc): Evaporation/white powder; XRPD results (Dried) ([2]; EtOAc): Pattern A; Dry method and appearance ([2]; Heptane): Centrifugation/white powder; XRPD results (Dried) ([2]; Heptane): Pattern B; Dry method and appearance ([2]; Isopropanol): Evaporation/white powder; XRPD results (Dried) ([2]; Isopropanol): Pattern A; Dry method and appearance ([2]; MTBE): Evaporation/white powder; XRPD results (Dried) ([2]; MTBE): Pattern A
CCCCCCCCOC(=O)Oc1ccc2c3c1O[C@H]1C(=O)CC[C@@]4(O)C(C2)N(CC2CC2)CC[C@]314 [Compound 23, (4aS,7aR,12bS)-3-(cyclopropylmethyl)-4a-hydroxy-7-oxo-2,3,4,4a,5,6,7,7a-octahydro-1H-4,12-methanobenzofuro[3,2-e]isoquinolin-9-yl octyl carbonate]	100	0	0	0	0	–
C=C1CC[C@@]2(O)C3Cc4ccc(OCOC(=O)OCCCCCCCCCCCCCC)c5c4[C@@]2(CCN3CC2CC2)[C@H]1O5 [Compound 25, (((4aS,7aS,12bS)-3-(cyclopropylmethyl)-4a-hydroxy-7-methylene-2,3,4,4a,5,6,7,7a-octahydro-1H-4,12-methanobenzofuro[3,2-e]isoquinolin-9-yl)oxy)methyl tetradecyl carbonate]	100	–	–	–	–	–
C=C1CC[C@@]2(O)C3Cc4ccc(OC(=O)OCCCCCCCCCCCCC)c5c4[C@@]2(CCN3CC2CC2)[C@H]1O5 [Compound 30, (4aS,7aS,12bS)-3-(cyclopropylmethyl)-4a-hydroxy-7-methylene-2,3,4,4a,5,6,7,7a-octahydro-1H-4,12-methanobenzofuro[3,2-e]isoquinolin-9-yl tridecyl carbonate]	100	–	–	–	–	–
C=C1CC[C@@]2(O)C3Cc4ccc(OC(=O)CCCCCCC/C=C\CCCCCCCC)c5c4[C@@]2(CCN3CC2CC2)[C@H]1O5 [Compound 36, (4aS,7aS,12bS)-3-(cyclopropylmethyl)-4a-hydroxy-7-methylene-2,3,4,4a,5,6,7,7a-octahydro-1H-4,12-methanobenzofuro[3,2-e]isoquinolin-9-yl oleate]	100	–	–	–	–	–
CCCCCCCCCCCCCCCCCCCC(=O)Oc1ccc2c3c1O[C@H]1C(=O)CC[C@@]4(O)C(C2)N(CC2CC2)CC[C@]314 [Compound 50, (4aS,7aR,12bS)-3-(cyclopropylmethyl)-4a-hydroxy-7-oxo-2,3,4,4a,5,6,7,7a-octahydro-1H-4,12-methanobenzofuro[3,2-e]isoquinolin-9-yl icosanoate]	100	–	–	–	–	–
CCCCCCCCCCCCCCCCCCCCCC(=O)Oc1ccc2c3c1O[C@H]1C(=O)CC[C@@]4(O)C(C2)N(CC2CC2)CC[C@]314 [Compound 51, (4aS,7aR,12bS)-3-(cyclopropylmethyl)-4a-hydroxy-7-oxo-2,3,4,4a,5,6,7,7a-octahydro-1H-4,12-methanobenzofuro[3,2-e]isoquinolin-9-yl docosanoate]	100	–	–	–	–	–
CCCCCCCCCCCCCCCCCC(=O)Oc1ccc2c3c1O[C@H]1C(=O)CC[C@@]4(O)C(C2)N(CC2CC2)CC[C@]314 [Compound 54, (4aS,7aR,12bS)-3-(cyclopropylmethyl)-4a-hydroxy-7-oxo-2,3,4,4a,5,6,7,7a-octahydro-1H-4,12-methanobenzofuro[3,2-e]isoquinolin-9-yl stearate]	100	–	–	–	–	–
CCCCCCCCCCCCCC(=O)Oc1ccc2c3c1O[C@H]1C(=O)CC[C@@]4(O)C(C2)N(CC2CC2)CC[C@]314 [Compound 57, (4aS,7aR,12bS)-3-(cyclopropylmethyl)-4a-hydroxy-7-oxo-2,3,4,4a,5,6,7,7a-octahydro-1H-4,12-methanobenzofuro[3,2-e]isoquinolin-9-yl tetradecanoate]	100	–	3.2	1.2	0	–
CCCCCCCCCCCCCCC(=O)Oc1ccc2c3c1O[C@H]1C(=O)CC[C@@]4(O)C(C2)N(CC2CC2)CC[C@]314 [Compound 58, (4aS,7aR,12bS)-3-(cyclopropylmethyl)-4a-hydroxy-7-oxo-2,3,4,4a,5,6,7,7a-octahydro-1H-4,12-methanobenzofuro[3,2-e]isoquinolin-9-yl pentadecanoate]	100	37	20	2.9	1.8	–
Enalapril maleate salt [reference compound]	100	44	2.9	8.2	4.8	–
